Reference: PubChem BioAssay (NCI)
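Five concentrations, 48 hours, 96-well plates. Abbreviation: GI50, concentration required for 50% inhibition of growth. TGI is the concentration that stops growth completely.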

How the values were obtained:
Experiment in all cases: inhibition of tumour cell growth, NCI panel, 48 h
[1] = system: 786-0 renal
[2] = system: A498 renal
[3] = system: A549 NSCLC
[4] = system: ACHN renal
[5] = system: BT-549 breast
[6] = system: CAKI-1 renal
[7] = system: CCRF-CEM leukemia
[8] = system: COLO 205 colon
[9] = system: HCC-2998 colon
[10] = system: HCT-116 colon
[11] = system: HCT-15 colon
[12] = system: HL-60(TB) leukemia
[13] = system: HOP-62 NSCLC
[14] = system: HS 578T breast
[15] = system: HT29 colon
[16] = system: IGROV1 ovarian
[17] = system: K-562 leukemia
[18] = system: KM12 colon
[19] = system: LOX IMVI melanoma
[20] = system: M14 melanoma
[21] = system: MALME-3M melanoma
[22] = system: MCF7 breast
[23] = system: MDA-MB-231 breast
[24] = system: MOLT-4 leukemia
[25] = system: NCI-H226 lung
[26] = system: NCI-H23 lung
[27] = system: NCI-H460 lung
[28] = system: NCI/ADR-RES ovarian
[29] = system: OVCAR-5 ovarian
[30] = system: PC-3 prostate
[31] = system: RPMI-8226 leukemia
[32] = system: RXF 393 renal
[33] = system: SF-268 CNS
[34] = system: SF-295 CNS
[35] = system: SF-539 CNS
[36] = system: SK-MEL-2 melanoma
[37] = system: SK-MEL-28 melanoma
[38] = system: SK-MEL-5 melanoma
[39] = system: SK-OV-3 ovarian
[40] = system: SN12C renal
[41] = system: SNB-19 CNS
[42] = system: SNB-75 CNS
[43] = system: SR leukemia
[44] = system: SW-620 colon
[45] = system: T-47D breast
[46] = system: U251 CNS
[47] = system: UACC-257 melanoma
[48] = system: UO-31 renal
[49] = system: EKVX NSCLC
[50] = system: HOP-92 NSCLC
[51] = system: NCI-H522 lung
[52] = system: OVCAR-3 ovarian
[53] = system: OVCAR-4 ovarian
[54] = system: OVCAR-8 ovarian
[55] = system: UACC-62 melanoma

Cc1cc(Nc2ncc3c(n2)N(C)C(=O)N(c2cc(NC(=O)c4cccc(C(F)(F)F)c4)ccc2C)C3)n(C)n1
GI50 [1]: 59.9 nM
TGI [1]: > 46400 nM
GI50 [2]: 15.8 nM
TGI [2]: 45.8 nM
GI50 [3]: 44 nM
TGI [3]: 417 nM
GI50 [4]: 28.1 nM
GI50 [5]: 62.8 nM
TGI [5]: 321 nM
GI50 [6]: 18.2 nM
TGI [6]: 70.9 nM
GI50 [7]: 2360 nM
TGI [7]: > 46400 nM
GI50 [8]: 19 nM
TGI [8]: 36.8 nM
GI50 [9]: 541 nM
TGI [9]: > 46400 nM
GI50 [10]: 33.3 nM
TGI [10]: 27100 nM
GI50 [11]: 196 nM
TGI [11]: > 46400 nM
GI50 [12]: 36.5 nM
GI50 [13]: 76.9 nM
TGI [13]: > 15600 nM
GI50 [14]: 35.3 nM
TGI [14]: 206 nM
GI50 [15]: 23 nM
TGI [15]: 86.4 nM
GI50 [16]: < 10 nM
TGI [16]: 52.4 nM
GI50 [17]: < 10 nM
TGI [17]: > 46400 nM
GI50 [18]: 321 nM
TGI [18]: > 46400 nM
GI50 [19]: 13.1 nM
TGI [19]: 30.5 nM
GI50 [20]: < 10 nM
TGI [20]: 96 nM
GI50 [21]: < 12.4 nM
TGI [21]: 48.9 nM
GI50 [22]: 624 nM
TGI [22]: > 46400 nM
GI50 [23]: 25.5 nM
TGI [23]: 164 nM
GI50 [24]: 135 nM
TGI [24]: > 46400 nM
GI50 [25]: 38.7 nM
TGI [25]: > 100000 nM
GI50 [26]: 73.3 nM
TGI [26]: > 31600 nM
GI50 [27]: 83.2 nM
TGI [27]: > 46400 nM
GI50 [28]: 970 nM
TGI [28]: > 31600 nM
GI50 [29]: 53.9 nM
GI50 [30]: 105 nM
TGI [30]: > 31600 nM
GI50 [31]: 641 nM
TGI [31]: 18600 nM
GI50 [32]: 21 nM
TGI [32]: 171 nM
GI50 [33]: 29.1 nM
TGI [33]: > 100000 nM
GI50 [34]: 364 nM
TGI [34]: > 100000 nM
GI50 [35]: 62.1 nM
TGI [35]: 680 nM
GI50 [36]: 24.5 nM
TGI [36]: 76.4 nM
GI50 [37]: 20 nM
TGI [37]: 150 nM
GI50 [38]: 283 nM
TGI [38]: 7870 nM
GI50 [39]: 22 nM
TGI [39]: 70.1 nM
GI50 [40]: 16.7 nM
TGI [40]: > 100000 nM
GI50 [41]: 234 nM
TGI [41]: > 46400 nM
GI50 [42]: 21.7 nM
TGI [42]: 69.9 nM
GI50 [43]: 26.4 nM
TGI [43]: 1210 nM
GI50 [44]: 53.9 nM
TGI [44]: > 46400 nM
GI50 [45]: 43.8 nM
TGI [45]: 2240 nM
GI50 [46]: 31.7 nM
TGI [46]: > 31600 nM
GI50 [47]: 19.7 nM
TGI [47]: 125 nM
GI50 [48]: 58.3 nM
TGI [48]: 322 nM

CC(C)(C)[Si](C)(C)OCC1OC(n2cc(I)c(=O)[nH]c2=O)C(O[Si](C)(C)C(C)(C)C)C1O[Si](C)(C)C(C)(C)C (configuration not stated)
TGI [3]: 26100 nM
TGI [4]: 28500 nM
TGI [5]: 50700 nM
TGI [8]: 53700 nM
TGI [49]: 45600 nM
TGI [11]: > 100000 nM
TGI [13]: 39800 nM
TGI [50]: 56200 nM
TGI [14]: 57200 nM
TGI [15]: 37000 nM
TGI [16]: 38100 nM
TGI [19]: 35200 nM
TGI [20]: 45400 nM
TGI [21]: > 100000 nM
TGI [22]: 29400 nM
TGI [23]: 37400 nM
TGI [24]: > 100000 nM
TGI [25]: 48000 nM
TGI [27]: 36800 nM
TGI [51]: 25200 nM
TGI [28]: > 100000 nM
TGI [52]: 28000 nM
TGI [53]: > 100000 nM
TGI [29]: 45700 nM
TGI [54]: 29100 nM
TGI [30]: 43100 nM
TGI [33]: 43000 nM
TGI [34]: 36800 nM
TGI [38]: 31400 nM
TGI [39]: 75400 nM
TGI [40]: > 100000 nM
TGI [41]: 43200 nM
TGI [42]: 33000 nM
TGI [43]: > 100000 nM
TGI [44]: 41400 nM
TGI [45]: 47600 nM
TGI [47]: 67600 nM
TGI [55]: 35400 nM
TGI [48]: 50200 nM
